# Data: ChEMBL document CHEMBL5512619, “Anticancer mechanism of coumarin-based derivatives” (Eur J Med Chem, 2024)
# Assays:
# [1] = tested on: HepG2; assay: Antiproliferative activity against human HepG2 cells measured after 24 hrs by MTT assay; type: functional, cell-based; details: HepG2, 24 h
# [2] = tested on: HCT-116; assay: Antiproliferative activity against human HCT-116 cells measured after 24 hrs by MTT assay; type: functional, cell-based; details: HCT-116, 24 h
# [3] = tested on: A549; assay: Antiproliferative activity against human A549 cells measured after 24 hrs by MTT assay; type: functional, cell-based; details: A549, 24 h
# [4] = tested on: SK-OV-3; assay: Antiproliferative activity against human SK-OV-3 cells measured after 21 hrs by MTT assay; type: functional, cell-based; details: SK-OV-3, 21 h
# [5] = biological target: Albumin (Homo sapiens, UniProt P02768); assay: Reversible binding affinity to human serum albumin
# [6] = Cytotoxicity against human Lu1 cells incubated for 72 hrs by MTT assay; type: functional, cell-based; details: Lu1, 72 h
# [7] = biological target: Receptor tyrosine-protein kinase erbB-2 (Homo sapiens, UniProt P04626); assay: Inhibition of HER2 (unknown origin)
# [8] = biological target: Epidermal growth factor receptor (Homo sapiens, UniProt P00533); assay: Inhibition of EGFR (unknown origin)
# [9] = tested on: HepG2; assay: Cytotoxicity against human HepG2 cells incubated for 72 hrs by MTT assay; type: functional, cell-based; details: HepG2, 72 h
# [10] = tested on: HeLa; assay: Cytotoxicity against human HeLa cells incubated for 72 hrs by MTT assay; type: functional, cell-based
# [11] = tested on: HeLa; assay: Antiproliferative activity against human HeLa cells incubated for 48 hrs by MTT assay; type: functional, cell-based
# [12] = tested on: A549; assay: Antiproliferative activity against human A549 cells incubated for 48 hrs by MTT assay; type: functional, cell-based; details: A549, 48 h
# [13] = biological target: Vascular endothelial growth factor receptor 2 (Homo sapiens, UniProt P35968); assay: Inhibition of human VEGFR2
# [14] = tested on: HeLa; assay: Cytotoxicity against human HeLa cells; type: functional, cell-based
# [15] = tested on: HepG2; assay: Cytotoxicity against human HepG2 cells; type: functional, cell-based
# [16] = Cytotoxicity against human Lu1 cells; type: functional, cell-based
# [17] = tested on: HepG2; assay: Antiproliferative activity against human HepG2 cells assessed as inhibition of cell growth after 72 hrs by MTT assay; type: functional, cell-based; details: HepG2, 72 h
# [18] = tested on: HeLa; assay: Antiproliferative activity against human HeLa cells assessed as inhibition of cell growth after 72 hrs by MTT assay; type: functional, cell-based
# [19] = tested on: MCF7; assay: Antiproliferative activity against human MCF7 cells assessed as inhibition of cell growth after 72 hrs by MTT assay; type: functional, cell-based; details: MCF7, 72 h
# [20] = tested on: SK-MEL-2; assay: Antiproliferative activity against human SK-MEL-2 cells assessed as inhibition of cell growth after 72 hrs by MTT assay; type: functional, cell-based; details: SK-MEL-2, 72 h
# [21] = Antiproliferative activity against human Lu1 cells assessed as inhibition of cell growth after 72 hrs by MTT assay; type: functional, cell-based; details: Lu1, 72 h
# [22] = biological target: Carbonic anhydrase 1 (Homo sapiens, UniProt P00915); assay: Binding affinity to human CA1 assessed as inhibition constant incubated for 10 mins by phenol red dye based stopped flow CO2 hydration assay
# [23] = biological target: Carbonic anhydrase 12 (Homo sapiens, UniProt O43570); assay: Binding affinity to human CA12 assessed as inhibition constant incubated for 10 mins by phenol red dye based stopped flow CO2 hydration assay
# [24] = biological target: Carbonic anhydrase 2 (Homo sapiens, UniProt P00918); assay: Binding affinity to human CA2 assessed as inhibition constant incubated for 10 mins by phenol red dye based stopped flow CO2 hydration assay
# [25] = biological target: Carbonic anhydrase 9 (Homo sapiens, UniProt Q16790); assay: Binding affinity to human CA9 assessed as inhibition constant incubated for 10 mins by phenol red dye based stopped flow CO2 hydration assay
# Receptor tyrosine-protein kinase erbB-2, sequence (P04626 whole entry): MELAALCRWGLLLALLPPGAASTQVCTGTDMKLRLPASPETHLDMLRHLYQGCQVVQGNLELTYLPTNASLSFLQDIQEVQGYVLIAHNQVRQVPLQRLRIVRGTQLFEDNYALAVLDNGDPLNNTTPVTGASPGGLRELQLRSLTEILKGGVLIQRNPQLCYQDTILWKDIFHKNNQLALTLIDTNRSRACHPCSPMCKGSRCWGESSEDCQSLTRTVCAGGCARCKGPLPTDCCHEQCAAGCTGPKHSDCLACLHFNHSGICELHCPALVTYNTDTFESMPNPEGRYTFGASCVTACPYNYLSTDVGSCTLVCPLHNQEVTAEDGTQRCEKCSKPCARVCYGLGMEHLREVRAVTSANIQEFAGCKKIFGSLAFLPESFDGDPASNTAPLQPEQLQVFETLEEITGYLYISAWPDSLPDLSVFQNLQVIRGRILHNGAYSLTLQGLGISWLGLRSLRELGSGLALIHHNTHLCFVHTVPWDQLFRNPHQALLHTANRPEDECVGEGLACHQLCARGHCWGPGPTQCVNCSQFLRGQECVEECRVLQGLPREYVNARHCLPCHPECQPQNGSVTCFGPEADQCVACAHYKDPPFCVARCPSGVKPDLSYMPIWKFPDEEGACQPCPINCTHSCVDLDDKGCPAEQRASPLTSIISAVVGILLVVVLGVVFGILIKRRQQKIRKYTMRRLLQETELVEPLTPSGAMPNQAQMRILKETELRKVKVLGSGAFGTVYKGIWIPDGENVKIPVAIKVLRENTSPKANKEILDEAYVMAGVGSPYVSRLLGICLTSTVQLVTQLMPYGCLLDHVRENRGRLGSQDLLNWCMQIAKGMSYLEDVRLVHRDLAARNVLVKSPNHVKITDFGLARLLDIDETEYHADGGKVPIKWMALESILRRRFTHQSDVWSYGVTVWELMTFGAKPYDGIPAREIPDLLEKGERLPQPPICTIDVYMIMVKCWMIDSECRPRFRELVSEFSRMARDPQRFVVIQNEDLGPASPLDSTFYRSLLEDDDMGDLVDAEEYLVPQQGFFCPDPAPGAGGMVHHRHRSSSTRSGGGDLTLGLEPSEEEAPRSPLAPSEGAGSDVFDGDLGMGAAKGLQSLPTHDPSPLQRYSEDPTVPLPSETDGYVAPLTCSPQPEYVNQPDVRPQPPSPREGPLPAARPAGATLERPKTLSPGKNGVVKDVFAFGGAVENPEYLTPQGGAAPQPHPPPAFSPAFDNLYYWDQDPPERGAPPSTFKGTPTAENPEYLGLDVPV
# Albumin, sequence (P02768 whole entry): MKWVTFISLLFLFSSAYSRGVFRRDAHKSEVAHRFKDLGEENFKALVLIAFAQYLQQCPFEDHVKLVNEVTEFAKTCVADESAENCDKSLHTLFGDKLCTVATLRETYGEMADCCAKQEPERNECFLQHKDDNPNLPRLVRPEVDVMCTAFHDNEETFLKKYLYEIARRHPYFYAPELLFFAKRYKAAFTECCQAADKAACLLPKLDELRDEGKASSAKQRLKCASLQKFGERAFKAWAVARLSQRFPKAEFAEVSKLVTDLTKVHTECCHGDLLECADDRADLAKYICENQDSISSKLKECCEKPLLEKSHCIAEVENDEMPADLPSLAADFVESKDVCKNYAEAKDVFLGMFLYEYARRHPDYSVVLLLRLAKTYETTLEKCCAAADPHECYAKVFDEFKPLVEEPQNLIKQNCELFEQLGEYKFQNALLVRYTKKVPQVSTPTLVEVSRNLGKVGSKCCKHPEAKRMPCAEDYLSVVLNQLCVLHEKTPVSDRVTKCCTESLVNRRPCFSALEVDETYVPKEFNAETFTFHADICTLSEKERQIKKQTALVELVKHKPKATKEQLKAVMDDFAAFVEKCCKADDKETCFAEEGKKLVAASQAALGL
# Epidermal growth factor receptor, sequence (P00533 whole entry): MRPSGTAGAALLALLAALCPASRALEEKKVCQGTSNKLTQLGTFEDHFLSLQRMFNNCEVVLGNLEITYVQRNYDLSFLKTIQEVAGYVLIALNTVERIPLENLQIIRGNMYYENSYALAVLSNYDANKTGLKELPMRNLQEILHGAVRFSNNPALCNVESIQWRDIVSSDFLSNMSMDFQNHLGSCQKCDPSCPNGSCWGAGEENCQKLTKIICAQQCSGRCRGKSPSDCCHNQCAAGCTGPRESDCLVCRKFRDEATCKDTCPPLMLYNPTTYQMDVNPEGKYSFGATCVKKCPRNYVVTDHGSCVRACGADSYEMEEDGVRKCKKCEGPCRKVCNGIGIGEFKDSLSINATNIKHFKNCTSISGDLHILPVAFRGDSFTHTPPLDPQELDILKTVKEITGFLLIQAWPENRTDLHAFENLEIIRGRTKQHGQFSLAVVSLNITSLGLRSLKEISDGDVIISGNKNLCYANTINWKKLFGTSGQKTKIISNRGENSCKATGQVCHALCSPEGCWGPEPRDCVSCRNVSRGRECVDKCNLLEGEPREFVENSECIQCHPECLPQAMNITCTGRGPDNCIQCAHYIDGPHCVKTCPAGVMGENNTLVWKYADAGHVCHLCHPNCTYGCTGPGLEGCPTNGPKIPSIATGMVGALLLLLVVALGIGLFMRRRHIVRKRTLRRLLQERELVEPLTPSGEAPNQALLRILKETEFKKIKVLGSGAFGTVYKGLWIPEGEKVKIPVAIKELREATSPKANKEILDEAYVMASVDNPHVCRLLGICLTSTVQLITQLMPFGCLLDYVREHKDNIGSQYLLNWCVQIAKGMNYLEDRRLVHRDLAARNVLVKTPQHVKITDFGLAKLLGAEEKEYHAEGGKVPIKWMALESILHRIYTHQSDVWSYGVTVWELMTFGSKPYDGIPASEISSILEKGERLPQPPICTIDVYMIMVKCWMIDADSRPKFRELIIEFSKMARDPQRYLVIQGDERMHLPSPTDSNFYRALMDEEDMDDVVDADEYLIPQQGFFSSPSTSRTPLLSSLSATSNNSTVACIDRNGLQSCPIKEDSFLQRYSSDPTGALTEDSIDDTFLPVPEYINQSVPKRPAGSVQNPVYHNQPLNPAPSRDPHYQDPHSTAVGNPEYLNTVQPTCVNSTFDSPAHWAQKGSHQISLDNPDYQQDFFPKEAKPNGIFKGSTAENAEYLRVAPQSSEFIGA
# Vascular endothelial growth factor receptor 2, sequence (P35968 whole entry): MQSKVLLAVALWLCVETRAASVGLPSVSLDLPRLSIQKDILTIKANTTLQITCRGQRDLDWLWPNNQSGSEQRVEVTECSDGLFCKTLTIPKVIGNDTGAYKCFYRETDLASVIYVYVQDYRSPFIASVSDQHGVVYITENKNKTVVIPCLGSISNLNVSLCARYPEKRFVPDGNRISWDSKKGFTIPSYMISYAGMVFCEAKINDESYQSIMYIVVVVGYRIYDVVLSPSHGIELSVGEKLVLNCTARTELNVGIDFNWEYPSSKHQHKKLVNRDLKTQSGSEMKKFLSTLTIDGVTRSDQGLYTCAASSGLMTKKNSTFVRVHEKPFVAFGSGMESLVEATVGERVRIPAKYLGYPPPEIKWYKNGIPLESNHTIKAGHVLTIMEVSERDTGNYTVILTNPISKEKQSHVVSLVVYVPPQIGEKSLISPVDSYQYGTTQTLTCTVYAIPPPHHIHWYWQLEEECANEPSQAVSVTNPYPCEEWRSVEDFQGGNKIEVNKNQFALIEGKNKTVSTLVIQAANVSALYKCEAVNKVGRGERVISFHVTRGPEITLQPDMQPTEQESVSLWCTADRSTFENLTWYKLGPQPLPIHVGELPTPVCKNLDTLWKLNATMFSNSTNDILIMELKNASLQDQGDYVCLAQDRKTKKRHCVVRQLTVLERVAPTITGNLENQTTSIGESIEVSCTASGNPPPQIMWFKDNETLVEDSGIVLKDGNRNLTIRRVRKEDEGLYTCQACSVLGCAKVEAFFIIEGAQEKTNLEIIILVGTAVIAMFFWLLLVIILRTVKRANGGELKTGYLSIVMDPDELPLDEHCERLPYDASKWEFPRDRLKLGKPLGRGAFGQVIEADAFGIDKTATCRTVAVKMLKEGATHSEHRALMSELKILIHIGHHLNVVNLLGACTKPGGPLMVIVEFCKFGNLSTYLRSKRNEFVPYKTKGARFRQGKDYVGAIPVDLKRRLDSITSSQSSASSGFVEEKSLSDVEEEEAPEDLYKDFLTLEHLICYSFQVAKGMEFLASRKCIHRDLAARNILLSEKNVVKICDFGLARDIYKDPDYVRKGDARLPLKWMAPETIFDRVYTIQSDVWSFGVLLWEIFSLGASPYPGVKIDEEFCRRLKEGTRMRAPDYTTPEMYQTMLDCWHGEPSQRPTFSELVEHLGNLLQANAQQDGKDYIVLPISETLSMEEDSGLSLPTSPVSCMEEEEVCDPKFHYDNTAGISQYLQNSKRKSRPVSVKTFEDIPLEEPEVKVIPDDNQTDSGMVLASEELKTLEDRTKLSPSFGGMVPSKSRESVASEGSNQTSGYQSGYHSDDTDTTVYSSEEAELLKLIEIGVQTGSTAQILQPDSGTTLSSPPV
# Carbonic anhydrase 1, sequence (P00915 whole entry): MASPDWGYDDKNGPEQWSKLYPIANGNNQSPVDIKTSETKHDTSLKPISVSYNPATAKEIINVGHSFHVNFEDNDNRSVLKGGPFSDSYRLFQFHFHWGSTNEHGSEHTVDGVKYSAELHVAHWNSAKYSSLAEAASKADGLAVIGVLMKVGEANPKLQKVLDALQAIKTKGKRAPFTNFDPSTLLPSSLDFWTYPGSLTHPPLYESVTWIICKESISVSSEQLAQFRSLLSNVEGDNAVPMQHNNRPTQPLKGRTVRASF
# Carbonic anhydrase 12, sequence (O43570 whole entry): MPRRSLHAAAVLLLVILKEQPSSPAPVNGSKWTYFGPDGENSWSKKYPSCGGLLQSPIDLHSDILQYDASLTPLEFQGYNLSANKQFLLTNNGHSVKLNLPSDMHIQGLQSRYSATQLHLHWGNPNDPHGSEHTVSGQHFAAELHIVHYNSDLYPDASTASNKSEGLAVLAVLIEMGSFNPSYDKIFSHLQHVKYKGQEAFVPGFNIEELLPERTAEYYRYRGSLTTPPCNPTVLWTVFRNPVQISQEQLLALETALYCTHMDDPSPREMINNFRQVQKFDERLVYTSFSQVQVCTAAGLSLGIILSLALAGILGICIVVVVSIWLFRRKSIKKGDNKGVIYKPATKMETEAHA
smiles,measurement,setting,value
COc1ccc(-c2cc(-c3cc4ccccc4oc3=O)nc(N)c2C(N)=O)cc1,IC50,[1],1100 nM
same,IC50,[2],1100 nM
same,IC50,[3],1100 nM
CC(C)(O[C@@H]1O[C@H](CO)[C@@H](O)[C@H](O)[C@H]1O)[C@H]1Cc2cc3ccc(=O)oc3cc2O1 [NODAKENIN],IC50,[4],> 100000 nM
Cc1cc(=O)oc2cc(NCc3cc(Br)cc(Br)c3O)ccc12,Kd,[5],30 nM
O=c1ccc2ccc(O[C@@H]3O[C@H](CO[C@@H]4OC[C@](O)(CO)[C@H]4O)[C@@H](O)[C@H](O)[C@H]3O)cc2o1,IC50,[4],> 100000 nM
Cc1cc(=O)oc2cc(NCc3cc(Cl)cc(Cl)c3O)ccc12,Kd,[5],30 nM
CC(=O)OC[C@H]1O[C@@H](N(C(C)=O)C2=NN(C(C)=O)C(c3cc(=O)oc4ccc(OCCC(C)C)cc34)S2)[C@H](OC(C)=O)[C@@H](OC(C)=O)[C@@H]1OC(C)=O (stereo partly specified),IC50,[6],1180 nM
same,IC50,[7],130 nM
same,IC50,[8],220 nM
same,IC50,[9],1180 nM
same,IC50,[10],1180 nM
COc1ccc2oc(=O)cc(COc3c(C)occc3=O)c2c1,IC50,[11],2470 nM
same,IC50,[12],2470 nM
CN(C)c1ccc(C2CC(c3c(O)c4ccccc4oc3=O)=NN2c2nc(-c3ccccc3)c(/N=N/c3ccc(Cl)cc3)s2)cc1 (stereo unspecified),IC50,[13],34 nM
CC(=O)OC[C@H]1O[C@@H](n2c(-c3ccccc3)cs/c2=N\N=C(/C)c2cc3ccccc3oc2=O)[C@H](OC(C)=O)[C@@H](OC(C)=O)[C@@H]1OC(C)=O,IC50,[14],1180 nM
same,IC50,[15],1180 nM
same,IC50,[16],1180 nM
COc1ccc(-c2cc(-c3cc4ccccc4oc3=O)nc3nc(C)[nH]c(=O)c23)cc1,IC50,[1],1100 nM
same,IC50,[2],1100 nM
same,IC50,[3],1100 nM
CC(=O)OC[C@H]1O[C@@H](n2c(-c3ccccc3)cs/c2=N\N=C\c2cc(=O)oc3ccc(OCC(C)C)cc23)[C@H](OC(C)=O)[C@@H](OC(C)=O)[C@@H]1OC(C)=O,IC50,[14],1180 nM
same,IC50,[15],1180 nM
same,IC50,[7],150 nM
same,IC50,[8],150 nM
same,IC50,[16],1180 nM
O=c1ccc2ccc(O[C@@H]3O[C@H](CO)[C@@H](O)[C@H](O)[C@H]3O)cc2o1 [SKIMMIN],IC50,[4],> 100000 nM
Cc1cc(=O)oc2cc(NCc3cc([N+](=O)[O-])ccc3O)ccc12,Kd,[5],30 nM
CC(=O)OC[C@H]1O[C@@H](n2c(-c3ccccc3)cs/c2=N\N=C\c2cc(=O)oc3cc(OCCC(C)C)ccc23)[C@H](OC(C)=O)[C@@H](OC(C)=O)[C@@H]1OC(C)=O,IC50,[14],1180 nM
same,IC50,[15],1180 nM
same,IC50,[7],150 nM
same,IC50,[8],150 nM
same,IC50,[16],1180 nM
COc1ccc(-c2cc(-c3cc4ccccc4oc3=O)nc(NC(C)=O)c2C#N)cc1,IC50,[1],1100 nM
same,IC50,[2],1100 nM
same,IC50,[3],1100 nM
CC(=O)OC[C@H]1O[C@@H](n2c(-c3ccccc3)cs/c2=N\N=C(/C)c2cc3cc(Cl)ccc3oc2=O)[C@H](OC(C)=O)[C@@H](OC(C)=O)[C@H]1OC(C)=O,IC50,[14],1180 nM
same,IC50,[15],1180 nM
same,IC50,[16],1180 nM
CC(=O)OC[C@H]1O[C@@H](n2c(-c3ccccc3)cs/c2=N\N=C\c2cc(=O)oc3cc(C)ccc23)[C@H](OC(C)=O)[C@@H](OC(C)=O)[C@@H]1OC(C)=O,IC50,[14],1180 nM
same,IC50,[15],1180 nM
same,IC50,[16],1180 nM
CCCCCOc1ccc2oc(=O)cc(/C=N/N=c3\scc(-c4ccccc4)n3[C@@H]3O[C@H](COC(C)=O)[C@@H](OC(C)=O)[C@H](OC(C)=O)[C@H]3OC(C)=O)c2c1,IC50,[14],1180 nM
same,IC50,[15],1180 nM
same,IC50,[7],150 nM
same,IC50,[8],150 nM
same,IC50,[16],1180 nM
CC(=O)OC[C@H]1O[C@@H](n2c(-c3ccccc3)cs/c2=N\N=C(/C)c2cc3cc(Br)ccc3oc2=O)[C@H](OC(C)=O)[C@@H](OC(C)=O)[C@H]1OC(C)=O,IC50,[14],1180 nM
same,IC50,[15],1180 nM
same,IC50,[16],1180 nM
Cc1cc(=O)oc2cc(NCc3cc(I)cc(I)c3O)ccc12,Kd,[5],30 nM
Cc1ccc2oc(=O)cc(COc3c(C)occc3=O)c2c1,IC50,[11],2470 nM
same,IC50,[12],2470 nM
CC(=O)OC[C@H]1O[C@@H](N(C(C)=O)C2=NN(C(C)=O)C(c3cc(=O)oc4cc(OCC(C)C)ccc34)S2)[C@H](OC(C)=O)[C@@H](OC(C)=O)[C@@H]1OC(C)=O (stereo partly specified),IC50,[6],1180 nM
same,IC50,[7],130 nM
same,IC50,[8],220 nM
same,IC50,[9],1180 nM
same,IC50,[10],1180 nM
COc1cc2oc(=O)ccc2cc1O[C@@H]1O[C@H](CO)[C@@H](O)[C@H](O)[C@H]1O,IC50,[4],> 100000 nM
Cc1cc(=O)oc2cc(NCc3ccccc3O)ccc12,Kd,[5],30 nM
CC(=O)OC[C@H]1O[C@@H](N(C(C)=O)C2=NN(C(C)=O)C(c3cc(=O)oc4cc(OCCC(C)C)ccc34)S2)[C@H](OC(C)=O)[C@@H](OC(C)=O)[C@@H]1OC(C)=O (stereo partly specified),IC50,[6],1180 nM
same,IC50,[7],130 nM
same,IC50,[8],220 nM
same,IC50,[9],1180 nM
same,IC50,[10],1180 nM
CCOc1ccc2oc(=O)cc(C3SC(N(C(C)=O)[C@@H]4O[C@H](COC(C)=O)[C@H](OC(C)=O)[C@H](OC(C)=O)[C@H]4OC(C)=O)=NN3C(C)=O)c2c1 (stereo partly specified),IC50,[6],1180 nM
same,IC50,[7],130 nM
same,IC50,[8],220 nM
same,IC50,[9],1180 nM
same,IC50,[10],1180 nM
CC1SC(N2N=C(c3cc4ccccc4oc3=O)CC2c2ccc(N(C)C)cc2)=NC1=O (stereo unspecified),IC50,[13],34 nM
CCCCOc1ccc2oc(=O)cc(C3SC(N(C(C)=O)[C@@H]4O[C@H](COC(C)=O)[C@@H](OC(C)=O)[C@H](OC(C)=O)[C@H]4OC(C)=O)=NN3C(C)=O)c2c1 (stereo partly specified),IC50,[6],1180 nM
same,IC50,[7],130 nM
same,IC50,[8],220 nM
same,IC50,[9],1180 nM
same,IC50,[10],1180 nM
CC(C)(O[C@@H]1O[C@H](CO)[C@@H](O)[C@H](O)[C@H]1O)[C@@H]1Cc2cc3ccc(=O)oc3cc2O1,IC50,[4],> 100000 nM
CCCCCOc1ccc2oc(=O)cc(C3SC(N(C(C)=O)[C@@H]4O[C@H](COC(C)=O)[C@@H](OC(C)=O)[C@H](OC(C)=O)[C@H]4OC(C)=O)=NN3C(C)=O)c2c1 (stereo partly specified),IC50,[6],1180 nM
same,IC50,[7],130 nM
same,IC50,[8],220 nM
same,IC50,[9],1180 nM
same,IC50,[10],1180 nM
CC(=O)OC[C@H]1O[C@@H](NC(=S)N/N=C(\C)c2c(C)c3ccccc3oc2=O)[C@H](OC(C)=O)[C@@H](OC(C)=O)[C@H]1OC(C)=O,IC50,[17],1280 nM
same,IC50,[18],1280 nM
same,IC50,[19],1280 nM
same,IC50,[20],1280 nM
same,IC50,[21],1280 nM
CC(=O)OC[C@H]1O[C@@H](NC(=S)N/N=C(\C)c2c(O)c3cccc(C)c3oc2=O)[C@H](OC(C)=O)[C@@H](OC(C)=O)[C@H]1OC(C)=O,IC50,[17],1280 nM
same,IC50,[18],1280 nM
same,IC50,[19],1280 nM
same,IC50,[20],1280 nM
same,IC50,[21],1280 nM
O=C(Nc1ccc2c(c1)C=CS(=O)(=O)O2)c1ccc(F)c(S(=O)(=O)N2CCCCC2)c1,Ki,[22],99.4 nM
same,Ki,[23],30.6 nM
same,Ki,[24],99.4 nM
same,Ki,[25],30.6 nM
Cc1ccc(C(=O)Nc2ccc3c(c2)C=CS(=O)(=O)O3)cc1S(=O)(=O)N1C[C@@H](C)O[C@@H](C)C1,Ki,[22],99.4 nM
same,Ki,[23],30.6 nM
same,Ki,[24],99.4 nM
same,Ki,[25],30.6 nM
Cc1nc(N2N=C(c3cc4ccccc4oc3=O)CC2c2ccc(N(C)C)cc2)sc1/N=N/c1ccc(Cl)cc1 (stereo unspecified),IC50,[13],34 nM
CCOc1ccc2c(C3SC(N(C(C)=O)[C@@H]4O[C@H](COC(C)=O)[C@H](OC(C)=O)[C@H](OC(C)=O)[C@H]4OC(C)=O)=NN3C(C)=O)cc(=O)oc2c1 (stereo partly specified),IC50,[6],1180 nM
same,IC50,[7],130 nM
same,IC50,[8],220 nM
same,IC50,[9],1180 nM
same,IC50,[10],1180 nM
